The record followed here is BindingDB's records for doi:10.1021/jm00096a016 (Kyowa Hakko Kogyo, 1992).

Test [1] can be described thus: Binding affinity at TXA2 receptor by measuring its ability to displace [3H]U-46619 from guinea pig platelets.
A short description of test [2]: Inhibition of the thromboxane A2 receptor assayed by binding to guinea pig platelets using [3H]U-46619 as radioligand.
Test [3] is described as follows: Compound was tested for its binding affinity at Thromboxane A2 receptor by measuring its ability to displace [3H]U-46619 from guinea pig platelets.
The target in test [4] is Thromboxane-A synthase (Bos taurus). The test can be described thus: Inhibitory effect against thromboxane A2 synthase binding to bovine platelets.
Test [5] in a line: Compound was tested for its inhibitory activity against TXA2 synthase obtained from bovine platelet microsomes.

The structures appear in SMILES notation.

In general, Ki refers to the dissociation constant of the complex between target and ligand, obtained from inhibition or displacement. Read a high Ki as weaker binding. On to `O=C(O)c1ccc2c(c1)C(SCCNS(=O)(=O)c1cccc([N+](=O)[O-])c1)c1ccccc1CO2` (stereo not given), for which the Ki in test [1] and in test [2] was 14 nM each time. For `O=C(O)c1ccc2c(c1)C(SCCNS(=O)(=O)c1ccccc1)c1cc(Br)ccc1CO2` (stereo not given), the Ki in test [2] and in test [3] was 6.8 nM in each case. In the case of `O=C(O)c1ccc2c(c1)C(SCCNC(=S)NCc1ccccc1)c1ccccc1CO2` (stereo not given), the Ki in test [1] and in test [2] was 6.1 nM throughout. Regarding `O=C(O)c1ccc2c(c1)C(SCCNS(=O)(=O)c1ccccc1)c1ccccc1CC2` (stereo not given), the Ki in test [1] and in test [2] was 30 nM throughout. As usually defined, the IC50 is the point on the concentration scale where inhibition reaches its midpoint. Regarding `O=C(NCCSC1c2ccccc2COc2ccc(C(=O)O)cc21)Nc1ccccc1` (stereo not given), the IC50 in test [4] and in test [5] was 830 nM in each case. As to `COc1ccc(S(=O)(=O)NCCSC2c3ccccc3COc3ccc(C(=O)O)cc32)cc1` (stereo not given), the affinity in test [3] corresponds to a Ki of 17 nM. Turning to `Cc1ccc(S(=O)(=O)NCCSC2c3ccccc3COc3ccc(C(=O)O)cc32)cc1` (stereo not given), the Ki in test [2] and in test [3] was 27 nM in each case. `Cc1ccsc1C(=O)NCCSC1c2ccccc2COc2ccc(C(=O)O)cc21` (stereo not given): the Ki in test [1] and in test [2] was 10 nM each time. For the compound `COc1cc(C(=O)NCCSC2c3ccccc3COc3ccc(C(=O)O)cc32)cc(OC)c1OC` (stereo not given), the Ki in test [1] and in test [2] was 92 nM throughout. Turning to `O=C(O)c1ccc2c(c1)C(SCCNS(=O)(=O)c1ccccc1[N+](=O)[O-])c1ccccc1CO2` (stereo not given), the Ki in test [2] and in test [3] was 15 nM throughout. In the case of `O=C(O)c1cccc(C(SCCNS(=O)(=O)c2ccccc2)c2ccccc2)c1` (stereo not given), the Ki in test [1] and in test [2] was 77 nM throughout. On to `O=C(O)c1ccc2c(c1)C(SCCNS(=O)(=O)c1ccc(C(F)(F)F)cc1)c1ccccc1CO2` (stereo not given), for which the Ki in test [2] and in test [3] was 20 nM each time. For the compound `O=C(O)c1ccc2c(c1)C(SCCNC(=O)c1ccccc1)c1ccccc1CO2` (stereo not given), the Ki in test [2] turned out to be 44 nM. In the case of `O=C(O)c1ccc2c(c1)C(SCCNS(=O)(=O)c1cccs1)c1ccccc1CO2` (stereo not given), the Ki in test [2] and in test [3] was 5.7 nM each time. For the compound `O=C(O)c1ccc2c(c1)C(SCCNS(=O)(=O)c1ccc3ccccc3c1)c1ccccc1CO2` (stereo not given), the inhibition constant (Ki) in test [1] and in test [2] was 14 nM in each case. Turning to `O=C(O)c1ccc2c(c1)C(SCCNC(=O)c1ccccc1O)c1ccccc1CO2` (stereo not given), the Ki in test [2] and in test [3] was 5.1 nM throughout. Consider `O=C(NCCSC1c2ccccc2COc2ccc(C(=O)O)cc21)OCc1ccccc1` (stereo not given), for which the affinity in test [2], expressed as Ki, was 7.7 nM. Turning to `O=C(O)c1ccc2c(c1)OCc1ccccc1C2SCCNS(=O)(=O)c1ccccc1` (stereo not given), the IC50 in test [4] and in test [5] was 370 nM each time. With `O=C(O)c1ccc2c(c1)C(SCCNS(=O)(=O)c1ccccc1)c1ccccc1C=C2` (stereo not given), the Ki in test [2] and in test [3] was 25 nM each time.
